Laboratory results taken from ChEMBL document CHEMBL1134053, “Structure-activity studies of 5-substituted pyridopyrimidines as adenosine kinase inhibitors” (Bioorg Med Chem Lett, 2001).

Legend:
Adenosine kinase [1] = target: T1, Adenosine kinase (Rattus norvegicus, UniProt Q64640); test: Inhibitory activity against intact cell adenosine kinase by ADO phosphorylation assay
Adenosine kinase [2] = target: T1, Adenosine kinase; test: Inhibitory activity against cytosolic adenosine kinase by ADO phosphorylation assay
Rattus norvegicus [3] = test: Tested for analgesic activity in vivo rat carrageenan hyperalgesia assay, administered by intraperitoneal injection to six animals at each dose. p<0.05; assay type: functional; conditions: ip
Rattus norvegicus [4] = test: Tested for analgesic activity in vivo rat formalin nociception assay, administered by intraperitoneal injection to six animals at each dose. p<0.05; assay type: functional; conditions: ip

T1 sequence (Q64640 whole entry): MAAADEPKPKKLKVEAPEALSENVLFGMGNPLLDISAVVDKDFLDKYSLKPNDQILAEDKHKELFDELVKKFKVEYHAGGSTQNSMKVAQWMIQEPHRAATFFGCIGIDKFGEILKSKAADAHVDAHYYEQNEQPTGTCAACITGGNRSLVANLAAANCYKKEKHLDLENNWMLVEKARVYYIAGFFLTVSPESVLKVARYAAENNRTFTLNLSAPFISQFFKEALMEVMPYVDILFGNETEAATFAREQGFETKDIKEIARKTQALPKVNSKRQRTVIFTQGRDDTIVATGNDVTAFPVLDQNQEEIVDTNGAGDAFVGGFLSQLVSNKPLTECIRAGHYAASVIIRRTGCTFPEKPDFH

IC50 (Adenosine kinase [1]) [nM]	IC50 (Adenosine kinase [2]) [nM]	SMILES	ED50 (Rattus norvegicus [3]) [µmol/kg]	ED50 (Rattus norvegicus [4]) [µmol/kg]
225	36	CN(C)c1ccc(-c2cc(-c3cccc(C(F)(F)F)c3)c3c(N)ncnc3n2)cc1	–	–
30	0.25	CC(c1ccccc1Br)c1cc(-c2ccc(N3CCOCC3)nc2)nc2ncnc(N)c12 (stereo not drawn)	10	10
115	9	CCC(CC)c1cc(-c2ccc(N3CCOCC3)nc2)nc2ncnc(N)c12	30	–
800	17	Nc1ncnc2nc(-c3ccc(N4CCOCC4)nc3)cc(C3CCOCC3)c12	> 2	30
> 1000	47	Cc1cc(-c2ccc(N(C)C)cc2)nc2ncnc(N)c12	–	–
304	21	C=CC(C)(C)c1cc(-c2ccc(N3CCOCC3)nc2)nc2ncnc(N)c12	–	–
102	0.23	CC1CC(C)CC(c2cc(-c3ccc(N4CCOCC4)nc3)nc3ncnc(N)c23)C1 (stereo not drawn)	30	> 30
33	0.17	Nc1ncnc2nc(-c3ccc(N4CCOCC4)nc3)cc(Cc3ccccc3Br)c12	3	30
400	85	COc1cccc(-c2cc(-c3ccc(N(C)C)cc3)nc3ncnc(N)c23)c1	–	–
430	30	Nc1ncnc2nc(-c3ccc(N4CCOCC4)nc3)cc(-c3ccc(Br)cc3)c12	–	30
550	11	CCCCc1cc(-c2ccc(N(C)C)cc2)nc2ncnc(N)c12	–	–
825	55	CN(C)c1ccc(-c2cc(C3CC3)c3c(N)ncnc3n2)cc1	–	–
315	62	Nc1ncnc2nc(-c3ccc(N4CCOCC4)nc3)cc(-c3cccnc3)c12	> 30	–
78	15	CN(C)c1ccc(-c2cc(-c3cccc(Cl)c3)c3c(N)ncnc3n2)cc1	–	–
850	77	CN(C)c1ccc(-c2cc(-c3cccc(C(N)=O)c3)c3c(N)ncnc3n2)cc1	–	–
> 1000	562	Nc1ncnc2nc(-c3ccc(N4CCOCC4)nc3)ccc12	–	–
325	35	CN(C)c1ccc(-c2cc(-c3cccc(C#N)c3)c3c(N)ncnc3n2)cc1	–	–

IC50 (Adenosine kinase [1]) [nM]	IC50 (Adenosine kinase [2]) [nM]	SMILES	ED50 (Rattus norvegicus [3]) [µmol/kg]	ED50 (Rattus norvegicus [4]) [µmol/kg]
470	8	CN(C)c1ccc(-c2cc(C3CCCCC3)c3c(N)ncnc3n2)cc1	–	–
> 10000	733	CN(C)c1ccc(-c2ccc3c(N)ncnc3n2)cc1	–	–
378	38	Nc1ncnc2nc(-c3ccc(N4CCOCC4)nc3)cc(-c3cc(Cl)ccc3Cl)c12	–	–
120	17	CN(C)c1ccc(-c2cc(-c3cccc(I)c3)c3c(N)ncnc3n2)cc1	–	–
130	5	Nc1ncnc2nc(-c3ccc(N4CCOCC4)nc3)cc(-c3cccc(Cl)c3Cl)c12	5	–
57	3	Nc1ncnc2nc(-c3ccc(N4CCOCC4)nc3)cc(C3CCCCC3)c12	10	20
488	10	Nc1ncnc2nc(-c3ccc(N4CCOCC4)nc3)cc(-c3ccco3)c12	–	–
550	13	Nc1ncnc2nc(-c3ccc(N4CCOCC4)nc3)cc(-c3ccsc3)c12	–	–
80	2	Nc1ncnc2nc(-c3ccc(N4CCOCC4)nc3)cc(C3CCCC3)c12	10	–
675	3	Nc1ncnc2nc(-c3ccc(N4CCOCC4)nc3)cc(-c3ccccc3Br)c12	30	10
96	9	Nc1ncnc2nc(-c3ccc(N4CCOCC4)nc3)cc(-c3cccc(Cl)c3)c12	20	10
353	44	CN(C)c1ccc(-c2cc(-c3cccc(O)c3)c3c(N)ncnc3n2)cc1	–	–
50	2	Nc1ncnc2nc(-c3ccc(N4CCOCC4)nc3)cc(-c3cccc(Br)c3)c12	0.6	25
–	400	CN(C)c1ccc(-c2cnc3c(N)ncnc3n2)cc1	–	–
470	7	CN(C)c1ccc(-c2cc(-c3ccccc3)c3c(N)ncnc3n2)cc1	–	–
170	5	CN(C)c1ccc(-c2cc(-c3cccc(Br)c3)c3c(N)ncnc3n2)cc1	30	0.7
